# Measured values published in ChEMBL document CHEMBL1938249, “Synthesis, antimalarial activity, and structure-activity relationship of 7-(2-phenoxyethoxy)-4(1H)-quinolones” (J Med Chem, 2011).
# What was measured:
# [1] = system: Plasmodium falciparum; assay: Antimalarial activity against chloroquine-, pyrimethamine-resistant ring stage Plasmodium falciparum W2 infected in human A positive erythrocytes after 72 hrs by SYBR green 1-based fluorescence assay; type: functional, organism-based; conditions: W2, 72 h
# [2] = system: Plasmodium falciparum; assay: Antimalarial activity against chloroquine-, mefloquine-, pyrimethamine-,atovaquone-resistant ring stage Plasmodium falciparum TM90-C2B infected in human A positive erythrocytes after 72 hrs by SYBR green 1-based fluorescence assay; type: functional, organism-based
# [3] = system: Plasmodium falciparum; assay: Resistance ratio, ratio of EC50 for chloroquine-, mefloquine, pyrimethamine-,atovaquone-resistant ring stage Plasmodium falciparum TM90-C2B to EC50 for chloroquine-, pyrimethamine-resistant Plasmodium falciparum W2; type: functional
# [4] = system: J774; assay: Antiproliferative against mouse J774 cells after 72 hrs by Cell titer assay; type: cell-based; conditions: J774, 72 h
# [5] = system: J774; assay: Antiproliferative against mouse J774 cells at < 20 uM after 72 hrs by Cell titer assay; type: cell-based; conditions: j774, 72 h
# [6] = Cytotoxicity index, ratio of EC50 for mouse J774 cells to EC50 for chloroquine-, mefloquine, pyrimethamine-,atovaquone-resistant ring stage Plasmodium falciparum TM90-C2B; type: cell-based; conditions: read-out: Ratio EC50
SMILES,EC50 [1],EC50 [2],Ratio EC50 [3],EC50 [4],Activity [5],selectivity ratio [6]
CCc1c(C)[nH]c2cc(OCOC)c(Cl)cc2c1=O,908 nM,79.7 nM,0.09,19000 nM,Non-toxic,≥ 100
CCCCc1cc2c(=O)c(-c3ccc(C)cc3C)c(C)[nH]c2cc1OCCOc1ccccc1,907 nM,1630 nM,1.79,22000 nM,Non-toxic,≥ 100
CCCCc1cc2c(=O)c(-c3ccccc3)c(C)[nH]c2cc1OCCOc1ccccc1,1070 nM,764 nM,0.71,23000 nM,Non-toxic,≥ 100
CCCCc1cc2c(=O)c(-c3ccc(Oc4ccc(OC(F)(F)F)cc4)cc3C)c(C)[nH]c2cc1OCCOc1ccccc1,58.5 nM,475 nM,8.12,16000 nM,Non-toxic,≥ 100
CCc1c(C)[nH]c2cc(OCCOc3ccccc3)c(Br)cc2c1=O,203 nM,43.5 nM,0.21,> 25000 nM,Non-toxic,≥ 100
CCCCc1cc2c(=O)c(-c3cccnc3)c(C)[nH]c2cc1OCCOc1ccccc1,1350 nM,588 nM,0.44,23000 nM,Non-toxic,≥ 100
CCCCc1cc2c(=O)c(-c3ccc(COc4ccc(OC(F)(F)F)cc4)cc3)c(C)[nH]c2cc1OCCOc1ccccc1,4050 nM,4050 nM,1,16000 nM,Non-toxic,≥ 100
CCc1c(C)[nH]c2cc(OCCOc3ccccc3)ccc2c1=O,104 nM,71.3 nM,0.79,4000 nM,Non-toxic,≥ 100
CCc1c(C)[nH]c2cc(OCCOc3ccccc3)c(C)cc2c1=O,255 nM,27.7 nM,0.11,> 30000 nM,Non-toxic,≥ 100
CCCCc1cc2c(=O)c(-c3ccc(C(F)(F)F)cc3)c(C)[nH]c2cc1OCCOc1ccccc1,509 nM,2450 nM,4.82,20000 nM,Non-toxic,≥ 100
CCCCc1cc2c(=O)c(-c3c(C)noc3C)c(C)[nH]c2cc1OCCOc1ccccc1,27 nM,128 nM,4.73,22000 nM,Non-toxic,≥ 100
CCc1c(C)[nH]c2cc(OCCCO)c(Cl)cc2c1=O,8450 nM,776 nM,0.09,,Non-toxic,≥ 100
O=C1C(O)=C([C@H]2CC[C@H](c3ccc(Cl)cc3)CC2)C(=O)c2ccccc21 [ATOVAQUONE],,> 170 nM,,,,
CCCCc1cc2c(=O)c(-c3cccc(Oc4ccc(F)cc4)c3)c(C)[nH]c2cc1OCCOc1ccccc1,1390 nM,1000 nM,0.72,19000 nM,Non-toxic,≥ 100
CCc1c(C)[nH]c2cc(OCCCOC(=O)C(CC)C(C)=O)c(Cl)cc2c1=O (stereo not given),6130 nM,6130 nM,1,,Non-toxic,≥ 100
CCc1c(C)[nH]c2cc(OCCOc3ccccc3)c(Cl)cc2c1=O,256 nM,72.1 nM,0.28,> 28000 nM,Non-toxic,≥ 100
CCc1c(C)[nH]c2cc(OCCCN3CCN(c4ccccc4)CC3)c(Cl)cc2c1=O,976 nM,91.7 nM,0.09,> 23000 nM,Non-toxic,≥ 100
CCc1c(C)[nH]c2cc(OCCN(C)C)c(Cl)cc2c1=O,5050 nM,604 nM,0.12,,Non-toxic,≥ 100
CCCCc1cc2c(=O)c(C(=O)OC)c[nH]c2cc1OCCOc1ccccc1,0.05 nM,11.2 nM,223,46000 nM,Non-toxic,≥ 100
CCCCc1cc2c(=O)c(-c3ccncc3)c(C)[nH]c2cc1OCCOc1ccccc1,3150 nM,1020 nM,0.32,23000 nM,Non-toxic,≥ 100
COC(=O)c1c[nH]c2cc(OC)c(Cl)cc2c1=O,134 nM,765 nM,5.7,37000 nM,Non-toxic,≥ 100
CCCCc1cc2c(=O)c(-c3ccc(Cl)cc3C)c(C)[nH]c2cc1OCCOc1ccccc1,68.7 nM,542 nM,7.89,> 21000 nM,Non-toxic,≥ 100
CCc1c(C)[nH]c2cc(OCCOc3ccccc3)c(OC)cc2c1=O,184 nM,19.5 nM,0.11,> 29000 nM,Non-toxic,≥ 100
CCCCc1cc2c(=O)c(-c3ccc(C(F)(F)F)cc3C)c(C)[nH]c2cc1OCCOc1ccccc1,71.8 nM,140 nM,1.95,20000 nM,Non-toxic,≥ 100
CCCCc1cc2c(=O)c(-c3ccc(C(F)(F)F)cc3F)c(C)[nH]c2cc1OCCOc1ccccc1,27.9 nM,30.9 nM,1.11,19000 nM,Non-toxic,≥ 100
CCCCc1cc2c(=O)cc(C)[nH]c2cc1OCCOc1ccccc1,216 nM,44.1 nM,0.2,28000 nM,Non-toxic,≥ 100
CCc1c(C)[nH]c2cc(OCCN3CCOCC3)c(Cl)cc2c1=O,5090 nM,726 nM,0.14,,Non-toxic,≥ 100
CCCCc1cc2c(=O)c(-c3ccc(OC(F)(F)F)cc3)c(C)[nH]c2cc1OCCOc1ccccc1,3220 nM,2510 nM,0.78,20000 nM,Non-toxic,≥ 100
CCCCc1cc2c(=O)c(CC)c(C)[nH]c2cc1OCCOc1ccccc1,1.92 nM,0.15 nM,0.08,1000 nM,Non-toxic,≥ 100
